Experimental data reported in patent US20230060425A1, “FUSED BICYCLIC HETEROCYCLE DERIVATIVES AS PESTICIDES” (Bayer Aktiengesellschaft, priority 2019, published 2023).
Like-named read-outs stand apart in the source and are kept apart here.

Key:
Format in all cases: in vivo
Spodoptera frugiperda = Spodoptera frugiperda spray test; conditions: foliar, 168 h, read-out: efficacy
Description: Spodoptera frugiperda—Spray Test
(§1) Solvent: • 78.0 parts by weight of acetone • 1.5 parts by weight of dimethylformamide
(§2) Emulsifier: alkylaryl polyglycol ether
To produce further test concentrations, the formulation is diluted with emulsifier-containing water.
After 7 days, the efficacy in % is determined. 100% means that all the caterpillars have been killed; 0% means that no caterpillar has been killed.

Phaedon cochleariae = Phaedon cochleariae spray test; conditions: foliar, 168 h, read-out: efficacy
Description: Phaedon cochleariae—Spray Test
as §1, §2
(§3) To produce a suitable active compound preparation, 1 part by weight of active compound is dissolved using the stated parts by weight of solvent and made up with water containing an emulsifier concentration of 1000 ppm until the desired concentration is attained. To produce further test concentrations, the formulation is diluted with emulsifier-containing water.
Discs of Chinese cabbage leaves (Brassica pekinensis) are sprayed with an active compound formulation of the desired concentration and, after drying, populated with larvae of the mustard beetle (Phaedon cochleariae).
After 7 days, the efficacy in % is determined. 100% means that all the beetle larvae have been killed; 0% means that no beetle larvae have been killed.

Myzus persicae [1] = experiment: Myzus persicae spray test; conditions: foliar, 120 h, application rate 100 g/ha, Chinese cabbage leaf discs, after 5 days, read-out: efficacy
Description: Myzus persicae—Spray Test
(§4) Solvent: • 78 parts by weight of acetone • 1.5 parts by weight of dimethylformamide
as §2, §3
Discs of Chinese cabbage leaves (Brassica pekinensis) infested by all stages of the green peach aphid (Myzus persicae) are sprayed with an active compound formulation of the desired concentration.
(§5) After 5 days, the efficacy in % is determined. 100% means that all the aphids have been killed; 0% means that no aphids have been killed.

Myzus persicae [2] = experiment: Myzus persicae oral test; conditions: 120 h, read-out: efficacy
Description: Solvent: 100 parts by weight of acetone
To produce a suitable preparation of active compound, 1 part by weight of active compound is dissolved using the specified parts by weight of solvent and made up with water until the desired concentration is attained.
50 μl of the active compound preparation are transferred into microtitre plates and made up to a final volume of 200 μl with 150 μl of IPL41 insect medium (33%+15% sugar). Subsequently, the plates are sealed with parafilm, which a mixed population of green peach aphids (Myzus persicae) within a second microtitre plate is able to puncture and imbibe the solution through it.
as §5

Ctenocephalides felis = Ctenocephalides felis oral test; conditions: 48 h, application rate 100 ppm, in citrated cattle blood, after 2 days, read-out: efficacy (kill in %)
Description: Ctenocephalides felis—Oral Test
Solvent: Dimethyl sulfoxide
To produce a suitable active compound formulation, 10 mg of active compound are mixed with 0.5 ml of dimethyl sulfoxide. Dilution with citrated cattle blood gives the desired concentration.
About 20 unfed adult cat fleas (Ctenocephalides felis) are placed into a chamber which is closed at the top and bottom with gauze. A metal cylinder whose bottom end is closed with parafilm is placed onto the chamber. The cylinder contains the blood/active compound formulation, which can be imbibed by the fleas through the parafilm membrane.
After 2 days, the kill in % is determined. 100% means that all of the fleas have been killed; 0% means that none of the fleas have been killed.

Diabrotica balteata = Diabrotica balteata spray test; conditions: 168 h, application rate 160 μg/cavity (μg/well), wheat grains, after 7 days, read-out: efficacy
Description: Diabrotica balteata—Spray Test
as §4, §2, §3
Pre-swollen wheat grains (Triticum aestivum) are incubated in a multiwell plate filled with agar and a little water for one day (5 seed grains per well). The germinated wheat grains are sprayed with an active compound preparation of the desired concentration. Subsequently, each cavity is infected with 10-20 beetle larvae of Diabrotica balteata.
After 7 days, the efficacy in % is determined. 100% means that all wheat plants have grown as in the untreated, uninfected control; 0% means that no wheat plant has grown.

[3] = application rate 100 g/ha, maize leaf discs, after 7 days
[4] = application rate 100 g/ha, Chinese cabbage leaf discs, after 7 days
[5] = application rate 4 ppm, after 5 days

SMILES	pest or weed control at 100 g/ha (Spodoptera frugiperda; [3]) [%]	pest or weed control at 100 g/ha (Phaedon cochleariae; [4]) [%]	pest or weed control at 100 g/ha (Myzus persicae [1]) [%]	pest or weed control at 4 ppm (Myzus persicae [2]; [5]) [%]	pest or weed control at 100 ppm (Ctenocephalides felis) [%]	pest or weed control at 160 µg/well (Diabrotica balteata) [%]	pest or weed control at 100 g/ha (Spodoptera frugiperda; in Zea mays) [%]	pest or weed control at 100 g/ha (Phaedon cochleariae; in Brassica rapa) [%]	pest or weed control at 4 ppm (Myzus persicae [2]) [%]
CCS(=O)(=O)c1c(-c2nc3cc(C(F)(F)F)cnc3n2C)ncc2cc(C#N)ccc12 [Example I-001]	100	100	90	100					
CCS(=O)(=O)c1c(-c2nc3cc(C(F)(F)F)cnc3n2C)ncc2cc(SCC(F)(F)F)ccc12 [Example I-002]		100	90	100					
CCS(=O)(=O)c1c(-c2nc3cc(C(F)(F)F)nnc3n2C)ncc2cc(C)ccc12 [Example I-003]			90	100	80				
CCS(=O)(=O)c1c(-c2nc3cc(C(F)(F)F)cnc3n2C)ncc2cc(C3CC3)ccc12 [Example I-007]	67	100		100					
CCS(=O)(=O)c1c(-c2nc3cc(C(F)(F)F)ncc3n2C)ncc2c(C(F)(F)F)cccc12 [Example I-013]	100	100	100	100	100				
CCS(=O)(=O)c1c(-c2nc3cc(C(F)(F)C(F)(F)F)cnc3n2C)ncc2c(C(F)(F)F)cccc12 [Example I-014]	100	100	100	90					
CCS(=O)(=O)c1c(-c2nc3cc(S(=O)(=O)C(F)(F)F)cnc3n2C)ncc2cc(Br)ccc12 [Example I-016]	100			100		100			
CCS(=O)(=O)c1c(-c2nc3cc(C(F)(F)F)ncc3n2C)ncc2c(Br)cccc12 [Example I-018]			100	100		100			
CCS(=O)(=O)c1c(-c2nc3cc(C(F)(F)C(F)(F)F)ncc3n2C)ncc2c(Br)cccc12 [Example I-019]	100			100		100			
CCS(=O)(=O)c1c(-c2nc3cc(C(F)(F)F)cnc3n2C)ncc2ccc(C(F)(F)F)cc12 [Example I-021]	100	100		100					
CCS(=O)(=O)c1c(-c2nc3cc(C(F)(F)F)cnc3n2C)ncc2cc(NC(=O)OC)ccc12 [Example I-022]							100	100	100
CCS(=O)(=O)c1c(-c2nc3cc(OC(F)(F)F)cnc3n2C)ncc2c(C(F)(F)F)cccc12 [Example I-024]	100	100	90	100	80				
CCS(=O)(=O)c1c(-c2nc3cc(C(F)(F)F)nnc3n2C)ncc2cc(Br)ccc12 [Example I-028]	100		90	100		80			
CCS(=O)(=O)c1c(-c2nc3cc(S(=O)(=O)C(F)(F)F)cnc3n2C)ncc2c(Br)cccc12 [Example I-029]	100		90	100		100			
CCS(=O)(=O)c1c(-c2nc3cc(C(F)(F)C(F)(F)F)cnc3n2C)ncc2c(C#N)cccc12 [Example I-030]	100			100		100			
CCS(=O)(=O)c1c(-c2nc3cc(C(F)(F)C(F)(F)F)cnc3n2C)ncc2c(Cl)cccc12 [Example I-031]	100			100		100			
CCS(=O)(=O)c1c(-c2nc3cc(C(F)(F)F)cnc3n2C)ncc2cc(OC)ccc12 [Example I-033]	100			100					
CCS(=O)(=O)c1c(-c2nc3cc(C(F)(F)F)cnc3n2C)ncc2cc(NC(C)=O)ccc12 [Example I-035]		100	90	100					
CCS(=O)(=O)c1c(-c2nc3cc(C(F)(F)F)cnc3n2C)ncc2cc(NC(=O)C3CC3)ccc12 [Example I-038]	100	100		100					
CCS(=O)(=O)c1c(-c2nc3cc(C(F)(F)F)nnc3n2C)ncc2ccc(Cl)cc12 [Example I-039]	100			100		100			
CCS(=O)(=O)c1c(-c2nc3cc(C(F)(F)C(F)(F)F)nnc3n2C)ncc2cc(Br)ccc12 [Example I-043]	100		90	100		100			
CCS(=O)(=O)c1c(-c2nc3cc(C(F)(F)F)nnc3n2C)ncc2ccc(C)cc12 [Example I-044]			90	100		100			
CCS(=O)(=O)c1c(-c2nc3cc(C(F)(F)F)nnc3n2C)ncc2ccc(C(F)(F)F)cc12 [Example I-045]	100		100	100		100			
CCS(=O)(=O)c1c(-c2nc3cc(C(F)(F)C(F)(F)F)nnc3n2C)ncc2c(Br)cccc12 [Example I-046]	100			100		100			
CCS(=O)(=O)c1c(-c2nc3cc(C(F)(F)C(F)(F)F)cnc3n2C)ncc2cc(OCC(F)(F)F)ccc12 [Example I-048]	100					100			
CCS(=O)(=O)c1c(-c2nc3cc(C(F)(F)C(F)(F)F)cnc3n2C)ncc2cc(OCC(F)F)ccc12 [Example I-049]	100					80			
CCS(=O)(=O)c1c(-c2nc3cc(C(F)(F)C(F)(F)F)cnc3n2C)ncc2cc(C3CC3)ccc12 [Example I-050]	100			90		100			
CCS(=O)(=O)c1c(-c2nc3cc(C(F)(F)C(F)(F)F)nnc3n2C)ncc2cc(C#N)ccc12 [Example I-051]	100			100		100			
CCS(=O)(=O)c1c(-c2nc3cc(C(F)(F)C(F)(F)F)nnc3n2C)ncc2c(Cl)cccc12 [Example I-052]	100			100		100			
CCS(=O)(=O)c1c(-c2nc3cc(C(F)(F)C(F)(F)F)cnc3n2C)ncc2cc(OCC(C)(F)F)ccc12 [Example I-053]	100					100			
